Source: patent US9179694B2, “Method and composition for enhancing milk production and milk component concentrations” (PURINA ANIMAL NUTRITION LLC, priority 2003, dated 2015)
Marks after values point to notes of the source that are not given here.

Assay: True protein content of produced milk in sorbitol feeding trials
Type: in vivo, Holstein cows
Conditions: for True Protein in Produced Milk: Pre-Partum Trial #1 (75/0/0 g/day in wk −3..−1/+1..+4/+5..+8)
Procedure: To determine the percent of total protein, wet basis, in a sample, the actual weight of total protein is determined in accordance with Method #991.20 (33.2.11) of Official Methods of Analysis, Association of Official Analytical Chemists (AOAC) (16th Ed., 1995). The value determined by the above method yields “total Kjeldahl nitrogen,” which is equivalent to “total protein” since the above method incorporates a factor that accounts for the average amount of nitrogen in protein. Since any and all total Kjeldahl nitrogen determinations presented herein are based on the above method, the terms “total Kjeldahl nitrogen” and “total protein” are used interchangeably herein. Furthermore, those skilled in the art will recognize that the term “total Kjeldahl nitrogen” is generally used in the art to mean “total protein” with the understanding that the factor has been applied. The weight percent total protein, wet basis, is calculated by dividing the actual weight of total protein by the actual weight of the sample. The weight percent of true protein, wet basis, for a particular sample is calculated after first determining the wet basis weight percent of total Kjeldahl nitrogen and the wet basis weight percent of non-protein nitrogen in the sample. The wet basis weight percent of total Kjeldahl nitrogen in the sample is determined using the method referenced above. The wet basis weight percent of non-protein nitrogen (NPN) in the sample is determined in accordance with Method #991.21 (33.2.12) of Official Methods of Analysis, Association of Official Analytical Chemists (AOAC) (16th Ed., 1995). The weight percent of true protein, wet basis, in the sample is then determined by subtracting the wet basis weight percent of non-protein nitrogen in the sample from the wet basis weight percent of total Kjeldahl nitrogen in the sample. Each cow of each of the six different trials (Control Trial #1, Control Trial #2, Pre-Partum Trial #1, Pre-Partum Trial #2, Pre/Post Trial #1, and Pre/Post Trial #2) was milked three times daily and the weight of produced milk by each cow was recorded at each milking. The milk from each cow was sampled once per week (⅓ of the sample volume from each of the three milkings occurring on the weekly milk sampling day) and was analyzed for true protein, total fat, lactose, and total solids, as detailed in the property determination and characterization techniques presented above. Additionally, samples of blood were periodically obtained from each cow during the four trials (Control Trial 2, Pre-Partum Trial #2, Pre/Post Trial #1, and Pre/Post Trial #2) encompassed in Example Two and were analyzed for non-esterified fatty acid (NEFA) content as detailed in the property determination and characterization techniques presented above. No NEFA analysis was conducted on the cows employed in Control Trial #1 or Pre-Partum Trial #1 that are the subject of Example One. Example One includes Control Trial #1 and Pre-Partum Trial #1. Both primiparious cows and multiparious cows were included in Control Trial #1 and Pre-Partum Trial #1. Five primiparious cows and fifteen multiparious cows were included in Control Trial #1; likewise, five primiparious cows and fifteen multiparious cows were included in Pre-Partum Trial #1. All cows included in Control Trial #1 and Pre-Partum Trial #1 were Holsteins. Example Two includes Control Trial #2, Pre-Partum Trial #2, Pre/Post Trial #1, and Pre/Post Trial #2. Only multiparious, Holstein cows were included in Control Trial #2, Pre-Partum Trial #1, Pre/Post Trial #1, and Pre/Post Trial #2. Eighteen multiparious cows were included in both Control Trial #2 and Pre-Partum Trial #2, while sixteen multiparious cows were included in Pre/Post Trial #1 and seventeen multiparious cows were included in Pre/Post Trial #2.

SMILES: OC[C@@H](O)[C@@H](O)[C@H](O)[C@@H](O)CO [sorbitol]
- True Protein in Produced Milk (multiparious cows, weeks +1 through +8): 2.82 wt %
- True Protein in Produced Milk (primiparious cows, weeks +1 through +8): 2.9 wt %
- increase in true protein concentration in the produced milk (Pre-Partum Trial #1 (75 g/day wk −3..−1 only) versus Control Trial #1, primiparious cows, weeks +1 through +8): 7.4%
- True Protein Content of Produced Milk (Pre-Partum Trial #2 (75/0/100 g/day in wk −3..−1/+1..+4/+5..+8), multiparious cows, week +1): 3.95 weight %
- True Protein Content of Produced Milk (Pre-Partum Trial #2 (75/0/100 g/day in wk −3..−1/+1..+4/+5..+8), multiparious cows, week +2): 3.14 weight %
- True Protein Content of Produced Milk (Pre-Partum Trial #2 (75/0/100 g/day in wk −3..−1/+1..+4/+5..+8), multiparious cows, week +3): 2.81 weight %
- True Protein Content of Produced Milk (Pre-Partum Trial #2 (75/0/100 g/day in wk −3..−1/+1..+4/+5..+8), multiparious cows, week +4): 2.71^ab weight %
- True Protein Content of Produced Milk (Pre-Partum Trial #2 (75/0/100 g/day in wk −3..−1/+1..+4/+5..+8), multiparious cows, week +5): 2.63 weight %
- True Protein Content of Produced Milk (Pre-Partum Trial #2 (75/0/100 g/day in wk −3..−1/+1..+4/+5..+8), multiparious cows, week +6): 2.62 weight %
- True Protein Content of Produced Milk (Pre-Partum Trial #2 (75/0/100 g/day in wk −3..−1/+1..+4/+5..+8), multiparious cows, week +7): 2.60 weight %
- True Protein Content of Produced Milk (Pre-Partum Trial #2 (75/0/100 g/day in wk −3..−1/+1..+4/+5..+8), multiparious cows, week +8): 2.56 weight %
- True Protein Content of Produced Milk (Pre-Partum Trial #2 (75/0/100 g/day in wk −3..−1/+1..+4/+5..+8), multiparious cows, weeks +1 through +4): 3.11 weight %
- True Protein Content of Produced Milk (Pre-Partum Trial #2 (75/0/100 g/day in wk −3..−1/+1..+4/+5..+8), multiparious cows, weeks +1 through +8): 2.86 weight %
- True Protein Content of Produced Milk (Pre-Partum Trial #2 (75/0/100 g/day in wk −3..−1/+1..+4/+5..+8), multiparious cows, weeks +5 through +8): 2.60 weight %
- True Protein Content of Produced Milk (Pre/Post Trial #1 (150/125/100 g/day in wk −3..−1/+1..+4/+5..+8), multiparious cows, week +1): 4.01 weight %
- True Protein Content of Produced Milk (Pre/Post Trial #1 (150/125/100 g/day in wk −3..−1/+1..+4/+5..+8), multiparious cows, week +1, two-trial comparison with Control Trial #2 (Table 24)): 4.01 weight %
- True Protein Content of Produced Milk (Pre/Post Trial #1 (150/125/100 g/day in wk −3..−1/+1..+4/+5..+8), multiparious cows, week +2): 3.17 weight %
- True Protein Content of Produced Milk (Pre/Post Trial #1 (150/125/100 g/day in wk −3..−1/+1..+4/+5..+8), multiparious cows, week +2, two-trial comparison with Control Trial #2 (Table 24)): 3.17 weight %
- True Protein Content of Produced Milk (Pre/Post Trial #1 (150/125/100 g/day in wk −3..−1/+1..+4/+5..+8), multiparious cows, week +3): 2.85 weight %
- True Protein Content of Produced Milk (Pre/Post Trial #1 (150/125/100 g/day in wk −3..−1/+1..+4/+5..+8), multiparious cows, week +3, two-trial comparison with Control Trial #2 (Table 24)): 2.85 weight %
- True Protein Content of Produced Milk (Pre/Post Trial #1 (150/125/100 g/day in wk −3..−1/+1..+4/+5..+8), multiparious cows, week +4): 2.73^ab weight %
- True Protein Content of Produced Milk (Pre/Post Trial #1 (150/125/100 g/day in wk −3..−1/+1..+4/+5..+8), multiparious cows, week +4, two-trial comparison with Control Trial #2 (Table 24)): 2.73 weight %
- True Protein Content of Produced Milk (Pre/Post Trial #1 (150/125/100 g/day in wk −3..−1/+1..+4/+5..+8), multiparious cows, week +5): 2.65 weight %
- True Protein Content of Produced Milk (Pre/Post Trial #1 (150/125/100 g/day in wk −3..−1/+1..+4/+5..+8), multiparious cows, week +5, two-trial comparison with Control Trial #2 (Table 24)): 2.65 weight %
- True Protein Content of Produced Milk (Pre/Post Trial #1 (150/125/100 g/day in wk −3..−1/+1..+4/+5..+8), multiparious cows, week +6): 2.61 weight %
- True Protein Content of Produced Milk (Pre/Post Trial #1 (150/125/100 g/day in wk −3..−1/+1..+4/+5..+8), multiparious cows, week +6, two-trial comparison with Control Trial #2 (Table 24)): 2.61 weight %
- True Protein Content of Produced Milk (Pre/Post Trial #1 (150/125/100 g/day in wk −3..−1/+1..+4/+5..+8), multiparious cows, week +7): 2.57 weight %
- True Protein Content of Produced Milk (Pre/Post Trial #1 (150/125/100 g/day in wk −3..−1/+1..+4/+5..+8), multiparious cows, week +7, two-trial comparison with Control Trial #2 (Table 24)): 2.57 weight %
- True Protein Content of Produced Milk (Pre/Post Trial #1 (150/125/100 g/day in wk −3..−1/+1..+4/+5..+8), multiparious cows, week +8): 2.65 weight %
- True Protein Content of Produced Milk (Pre/Post Trial #1 (150/125/100 g/day in wk −3..−1/+1..+4/+5..+8), multiparious cows, week +8, two-trial comparison with Control Trial #2 (Table 24)): 2.65 weight %
- True Protein Content of Produced Milk (Pre/Post Trial #1 (150/125/100 g/day in wk −3..−1/+1..+4/+5..+8), multiparious cows, weeks +1 through +4): 3.18 weight %
- True Protein Content of Produced Milk (Pre/Post Trial #1 (150/125/100 g/day in wk −3..−1/+1..+4/+5..+8), multiparious cows, weeks +1 through +4, two-trial comparison with Control Trial #2 (Table 24)): 3.18 weight %
- True Protein Content of Produced Milk (Pre/Post Trial #1 (150/125/100 g/day in wk −3..−1/+1..+4/+5..+8), multiparious cows, weeks +1 through +8): 2.90 weight %
- True Protein Content of Produced Milk (Pre/Post Trial #1 (150/125/100 g/day in wk −3..−1/+1..+4/+5..+8), multiparious cows, weeks +1 through +8, two-trial comparison with Control Trial #2 (Table 24)): 2.90 weight %
- True Protein Content of Produced Milk (Pre/Post Trial #1 (150/125/100 g/day in wk −3..−1/+1..+4/+5..+8), multiparious cows, weeks +5 through +8): 2.62 weight %
- True Protein Content of Produced Milk (Pre/Post Trial #1 (150/125/100 g/day in wk −3..−1/+1..+4/+5..+8), multiparious cows, weeks +5 through +8, two-trial comparison with Control Trial #2 (Table 24)): 2.62 weight %
- increase in true protein concentration in milk (Pre/Post Trial #1 (150/125/100 g/day) versus Control Trial #2, multiparious cows, weeks +1 through +4 (Table 24)): 4.6%
- increase in true protein concentration in milk (Pre/Post Trial #1 (150/125/100 g/day) versus Control Trial #2, multiparious cows, weeks +1 through +8 (Table 24)): 2.8%
- True Protein Content of Produced Milk (Pre/Post Trial #2 (75/75/100 g/day in wk −3..−1/+1..+4/+5..+8), multiparious cows, week +1): 3.96 weight %
- True Protein Content of Produced Milk (Pre/Post Trial #2 (75/75/100 g/day in wk −3..−1/+1..+4/+5..+8), multiparious cows, week +2): 3.13 weight %
- True Protein Content of Produced Milk (Pre/Post Trial #2 (75/75/100 g/day in wk −3..−1/+1..+4/+5..+8), multiparious cows, week +3): 2.89 weight %
- True Protein Content of Produced Milk (Pre/Post Trial #2 (75/75/100 g/day in wk −3..−1/+1..+4/+5..+8), multiparious cows, week +4): 2.77^b weight %
- True Protein Content of Produced Milk (Pre/Post Trial #2 (75/75/100 g/day in wk −3..−1/+1..+4/+5..+8), multiparious cows, week +5): 2.70 weight %
- True Protein Content of Produced Milk (Pre/Post Trial #2 (75/75/100 g/day in wk −3..−1/+1..+4/+5..+8), multiparious cows, week +6): 2.69 weight %
- True Protein Content of Produced Milk (Pre/Post Trial #2 (75/75/100 g/day in wk −3..−1/+1..+4/+5..+8), multiparious cows, week +7): 2.64 weight %
- True Protein Content of Produced Milk (Pre/Post Trial #2 (75/75/100 g/day in wk −3..−1/+1..+4/+5..+8), multiparious cows, week +8): 2.61 weight %
- True Protein Content of Produced Milk (Pre/Post Trial #2 (75/75/100 g/day in wk −3..−1/+1..+4/+5..+8), multiparious cows, weeks +1 through +4): 3.18 weight %
- True Protein Content of Produced Milk (Pre/Post Trial #2 (75/75/100 g/day in wk −3..−1/+1..+4/+5..+8), multiparious cows, weeks +1 through +8): 2.91 weight %
- True Protein Content of Produced Milk (Pre/Post Trial #2 (75/75/100 g/day in wk −3..−1/+1..+4/+5..+8), multiparious cows, weeks +5 through +8): 2.66 weight %
- increase in true protein concentration in milk (average of means of Pre-Partum Trial #2, Pre/Post Trial #1 and Pre/Post Trial #2 versus Control Trial #2, multiparious cows, weeks +1 through +4): 3.8%
- increase in true protein concentration in milk (average of means of Pre-Partum Trial #2, Pre/Post Trial #1 and Pre/Post Trial #2 versus Control Trial #2, multiparious cows, weeks +1 through +8): 2.5%
